Marks after values point to notes of the source that are not given here. Blank lines part the entries; values can stand above or below the molecule they belong to.
Legend:
marble burying [1] = details: mice; ref 7a,d; cited from earlier work
rat mGlu5 = rat mGlu5 (Rattus norvegicus, UniProt P31424); experiment: Calcium mobilization mGlu5 assay; format: cell-based; details: for mGlu5 pIC50 (± SEM) / IC50: HEK293A cells expressing rat mGlu5, EC80 glutamate; for mGlu5 pIC50 (± SEM): average of n ≥ 3; for IC50: read-out: mGlu5 IC50
Sequence of rat mGlu5 (P31424 21-1203): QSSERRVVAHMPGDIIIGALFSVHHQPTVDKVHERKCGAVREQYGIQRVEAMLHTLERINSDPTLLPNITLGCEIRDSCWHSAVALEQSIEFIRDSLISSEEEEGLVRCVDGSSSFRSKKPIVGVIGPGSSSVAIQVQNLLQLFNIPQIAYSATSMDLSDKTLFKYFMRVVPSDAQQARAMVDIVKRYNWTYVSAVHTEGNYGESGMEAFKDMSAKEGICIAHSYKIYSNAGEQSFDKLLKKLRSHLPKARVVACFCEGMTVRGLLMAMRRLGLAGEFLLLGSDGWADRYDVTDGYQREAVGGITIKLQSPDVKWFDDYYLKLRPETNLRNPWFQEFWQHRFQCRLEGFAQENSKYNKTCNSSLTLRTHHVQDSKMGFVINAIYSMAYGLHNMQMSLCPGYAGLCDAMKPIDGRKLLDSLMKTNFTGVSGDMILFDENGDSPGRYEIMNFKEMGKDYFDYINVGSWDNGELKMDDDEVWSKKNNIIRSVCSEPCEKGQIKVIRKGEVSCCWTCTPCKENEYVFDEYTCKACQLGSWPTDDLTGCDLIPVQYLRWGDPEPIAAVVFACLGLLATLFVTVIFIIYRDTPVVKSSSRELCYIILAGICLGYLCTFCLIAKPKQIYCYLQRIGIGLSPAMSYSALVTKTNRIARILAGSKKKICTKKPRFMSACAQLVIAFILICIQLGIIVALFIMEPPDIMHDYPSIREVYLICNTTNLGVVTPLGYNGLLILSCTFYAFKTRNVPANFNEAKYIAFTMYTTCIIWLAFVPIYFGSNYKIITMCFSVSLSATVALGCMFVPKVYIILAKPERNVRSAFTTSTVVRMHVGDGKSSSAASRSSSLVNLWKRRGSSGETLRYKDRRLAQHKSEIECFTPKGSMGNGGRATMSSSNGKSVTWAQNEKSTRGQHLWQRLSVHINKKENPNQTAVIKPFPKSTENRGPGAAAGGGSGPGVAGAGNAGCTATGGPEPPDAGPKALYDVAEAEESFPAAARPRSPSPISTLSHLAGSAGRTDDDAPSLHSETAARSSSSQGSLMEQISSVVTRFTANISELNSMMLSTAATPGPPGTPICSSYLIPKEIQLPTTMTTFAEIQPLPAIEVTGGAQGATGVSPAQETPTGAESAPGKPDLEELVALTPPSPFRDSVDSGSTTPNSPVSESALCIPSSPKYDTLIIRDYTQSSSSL

[2] = prior PK studies in rats; cited from earlier work
marble burying [3] = experiment: Mouse marble burying model of anxiety; details: IP dosing, 15 minute pretreatment; all doses greater than or equal to 3 mg/kg; n = 8 per dose; P < 0.001 vs. vehicle
[4] = system: panel of 68 clinically relevant GPCRs, ion channels, kinases, and transporters; experiment: Radioligand binding assay panel; details: 10 μM compound; significant = more than 50% inhibition of radioligand binding

fold loss of potency compared to 24 (rat mGlu5; mGlu5 potency vs 24): 10 fold
SMILES: CCCc1csc(NC(=O)c2cc(F)cc(Oc3cncnc3)c2)n1 [Compound 33]

fold loss of potency vs. 28 (rat mGlu5; mGlu5 potency vs 28): > 100 fold
SMILES: Cc1ncc(Oc2cc(Cl)cc(C(=O)Nc3ccc(F)cn3)c2)cn1 [Compound 75]

mGlu5 pIC50 (± SEM) (rat mGlu5): < 4.5 | IC50 (rat mGlu5): > 30 µM
SMILES: O=C(Nc1nc(C(F)(F)F)cs1)c1cccc(Oc2cccnc2)c1 [Compound 20]

fold loss of potency compared to 25 (rat mGlu5; mGlu5 potency vs 25): 7 fold
SMILES: CCCc1csc(NC(=O)c2cc(Cl)cc(Oc3cncnc3)c2)n1 [Compound 38]

fold decrease in potency vs. 66 (rat mGlu5; mGlu5 potency vs 66): 5 fold
SMILES: Cc1cccc(NC(=O)c2cc(Cl)cc(Oc3cnc(C)nc3)c2)n1 [Compound 76]

responses in radioligand binding panel of 68 targets [4]: no significant responses
SMILES: Cc1csc(NC(=O)c2cc(F)cc(Oc3cncnc3)c2)n1 [Compound 24]
clearance in rats [2]: moderate to high clearance | inhibition of marble burying (marble burying [3]): Statistically significant inhibition

Second part, the molecule before the results:

SMILES: Cc1cccc(C#Cc2ccccc2)n1 [MPEP]
efficacy in marble burying model (marble burying [1]): effective

SMILES: O=C(Nc1cccc(Cl)c1)c1cccc(Oc2cccnc2)c1 [Compound 3]
fold less potent than 2 (rat mGlu5; mGlu5 potency vs 2): more than 20 fold

SMILES: CN1CC(=O)NC1=NC(=O)Nc1cccc(Cl)c1 [fenobam]
efficacy in marble burying model (marble burying [1]): effective

SMILES: Cc1nsc(NC(=O)c2cccc(Oc3cccnc3)c2)n1 [Compound 19]
mGlu5 pIC50 (± SEM) (rat mGlu5): < 4.5 | IC50 (rat mGlu5): > 30 µM

SMILES: O=C(Nc1ccncn1)c1cccc(Oc2cccnc2)c1 [Compound 11]
mGlu5 pIC50 (± SEM) (rat mGlu5): < 5.0 ^c | IC50 (rat mGlu5): > 10 µM
